The values that follow come from ChEMBL document CHEMBL1138161, “Structure-activity relationships of alpha-amino acid ligands for the alpha2delta subunit of voltage-gated calcium channels” (Bioorg Med Chem Lett, 2006).

Series [1] has as its system Rattus norvegicus. Nature of the series: Maximum efficacy in rat CFA model at 300 umol/kg. The format is functional.
A short description of series [2]: Concentration in rat brain after 0.75 h at 100 umol/kg, po. The format is ADME, organism-based. As to conditions: read-out: Drug uptake.
The subject of series [3] is Rattus norvegicus. Description: Potency against persistent inflammatory pain in orally dosed rat CFA model. Format: functional. The note with it: po.

Broadly, the ED50 is the midpoint of the dose-response relation.

A value given as a limit tells only on which side of the number the result lay.

Compound `NC(C(=O)O)c1cccc(Cl)c1` (stereo not given) registered an Efficacy with Rattus norvegicus [1] of 64%. In addition, the concentration at 0.75 h in series [2] was found to be 1760 ng/g. As for `NCC1(CC(=O)O)CCCCC1` [GABAPENTIN], in the series with Rattus norvegicus [3], the 50% effect level (ED50) was put at a dose of 125 µmol/kg. In addition, the concentration at 0.75 h in series [2] worked out at 3410 ng/g.

In the case of `N[C@@H](CC1CCCCC1)C(=O)O`, in the series with Rattus norvegicus [3], the median effective dose (ED50) amounted to 200 µmol/kg. Consider `NC(CCSCc1ccc(Br)cc1)C(=O)O` (stereo not given), for which the ED50 with Rattus norvegicus [3] is more than 300 µmol/kg. Compound `N[C@H](C(=O)O)c1ccccc1` returned an ED50 with Rattus norvegicus [3] of 100 µmol/kg. Moreover, the concentration at 0.75 h in series [2] is 6300 ng/g.

Regarding `N[C@@H](CCSCc1ccccc1)C(=O)O`, in the series with Rattus norvegicus [3], the ED50 came to 120 µmol/kg. Moreover, the concentration at 0.75 h in series [2] is 430 ng/g.
